Assay results reported in patent US9861635B2, “Macrocycles as kinase inhibitors” (Merck Patent GmbH, priority 2013, dated 2018).

Experiments:
[1] = molecular target: T1, GCN2 (Homo sapiens, UniProt Q9P2K8); experiment: GCN2 enzyme assay (TR-FRET Lanthascreen, GFP-eIF2alpha substrate); format: biochemical; conditions: 10 μM ATP, 80 nM GFP-eIF2a, 30 nM GCN2
From the text: GCN2: Assay Principle & Conditions
This assay can quantificate the activity of the serin kinase GCN2 (general control non-derepressible-2).
This kinase is involved in the stress metabolism of cells. It is activated upon starvation (amino acid depletion). Its natural substrate is eIF2a (eukaryotic initiation factor 2 alpha subunit), a translation factor, which gets activated (phosphorylated) by GCN2 in case of an amino acid bottleneck in the cells. This in turn leads to a halt of the protein synthesis. Inhibition of GCN2 results in stopping this mechanism: The cell can not stop protein production upon “starvation” stress.
The assay is run in two steps: the enzymatic reaction and the detection step. In the first step GCN2 is incubated with 10 μM ATP and 80 nM of the GFP-labelled substrate eIF2alpha at room temperature.
The enzymatic reaction is stopped by addition of EDTA. The amount of phosphorylated eIF2alpha is determined by TR-FRET (Lanthascreen): A complex is formed consisting of antibody and GFP labelled phospho-eIF2a, which allows a FRET upon excitation at 340 nm.
The GCN2-activity is directly proportional to the ratio of fluorescence units at the emission wavelength 520 nm (phosphopeptide-sensitive wavelength=emission of GFP) to the units at 495 nm (reference wavelength=emission of Terbium-chelate).
Final Concentrations in the Enzymatic Reaction

[2] = molecular target: T1, GCN2; experiment: Cellular assay of GCN2 activity (phospho-eIF2alpha immunocytochemistry in U2OS cells, tryptophanol); format: cell-based; set-up: endogenous in cells; host or cells: U2OS; conditions: 2 h compound, 600 μM tryptophanol 30 min
Method: Cellular Assay for the Determination of Compound Activities
Human U2OS cells (2000 cells/well) are seeded into 384-well plates and incubated for 20 hours.
The next day, the cells are treated with the test compounds and incubated for 2 hours. Then, tryptophanol, at a final concentration of 600 μM, is added to the cells and those are incubated for 30 minutes.
The analysis of cellular GCN2 activities is done by immunocytochemistry. Briefly, cells are fixated on the well surfaces by formaldehyde and permeabilized with Triton X-100. The primary antibody (anti-phospho-eIF2alpha (Ser51, Cell Signalling Technology, #3398) is incubated on the treated cells for 20 hours, followed by a 60 minutes incubation of the secondary antibody (anti-rabbit-IgG-Alexa 488; Molecular Probes #11008).
The analysis and quantification of phosphorylated GCN2 is done by scanning the plates in the Acumen Explorer system (TTPLabtech). The obtained data are normalised against the untreated control wells (DMSO only) and expressed as % effect values. The determination of IC50 values is done by using the Graph Pad Prism software.

T1 sequence (Q9P2K8 whole entry): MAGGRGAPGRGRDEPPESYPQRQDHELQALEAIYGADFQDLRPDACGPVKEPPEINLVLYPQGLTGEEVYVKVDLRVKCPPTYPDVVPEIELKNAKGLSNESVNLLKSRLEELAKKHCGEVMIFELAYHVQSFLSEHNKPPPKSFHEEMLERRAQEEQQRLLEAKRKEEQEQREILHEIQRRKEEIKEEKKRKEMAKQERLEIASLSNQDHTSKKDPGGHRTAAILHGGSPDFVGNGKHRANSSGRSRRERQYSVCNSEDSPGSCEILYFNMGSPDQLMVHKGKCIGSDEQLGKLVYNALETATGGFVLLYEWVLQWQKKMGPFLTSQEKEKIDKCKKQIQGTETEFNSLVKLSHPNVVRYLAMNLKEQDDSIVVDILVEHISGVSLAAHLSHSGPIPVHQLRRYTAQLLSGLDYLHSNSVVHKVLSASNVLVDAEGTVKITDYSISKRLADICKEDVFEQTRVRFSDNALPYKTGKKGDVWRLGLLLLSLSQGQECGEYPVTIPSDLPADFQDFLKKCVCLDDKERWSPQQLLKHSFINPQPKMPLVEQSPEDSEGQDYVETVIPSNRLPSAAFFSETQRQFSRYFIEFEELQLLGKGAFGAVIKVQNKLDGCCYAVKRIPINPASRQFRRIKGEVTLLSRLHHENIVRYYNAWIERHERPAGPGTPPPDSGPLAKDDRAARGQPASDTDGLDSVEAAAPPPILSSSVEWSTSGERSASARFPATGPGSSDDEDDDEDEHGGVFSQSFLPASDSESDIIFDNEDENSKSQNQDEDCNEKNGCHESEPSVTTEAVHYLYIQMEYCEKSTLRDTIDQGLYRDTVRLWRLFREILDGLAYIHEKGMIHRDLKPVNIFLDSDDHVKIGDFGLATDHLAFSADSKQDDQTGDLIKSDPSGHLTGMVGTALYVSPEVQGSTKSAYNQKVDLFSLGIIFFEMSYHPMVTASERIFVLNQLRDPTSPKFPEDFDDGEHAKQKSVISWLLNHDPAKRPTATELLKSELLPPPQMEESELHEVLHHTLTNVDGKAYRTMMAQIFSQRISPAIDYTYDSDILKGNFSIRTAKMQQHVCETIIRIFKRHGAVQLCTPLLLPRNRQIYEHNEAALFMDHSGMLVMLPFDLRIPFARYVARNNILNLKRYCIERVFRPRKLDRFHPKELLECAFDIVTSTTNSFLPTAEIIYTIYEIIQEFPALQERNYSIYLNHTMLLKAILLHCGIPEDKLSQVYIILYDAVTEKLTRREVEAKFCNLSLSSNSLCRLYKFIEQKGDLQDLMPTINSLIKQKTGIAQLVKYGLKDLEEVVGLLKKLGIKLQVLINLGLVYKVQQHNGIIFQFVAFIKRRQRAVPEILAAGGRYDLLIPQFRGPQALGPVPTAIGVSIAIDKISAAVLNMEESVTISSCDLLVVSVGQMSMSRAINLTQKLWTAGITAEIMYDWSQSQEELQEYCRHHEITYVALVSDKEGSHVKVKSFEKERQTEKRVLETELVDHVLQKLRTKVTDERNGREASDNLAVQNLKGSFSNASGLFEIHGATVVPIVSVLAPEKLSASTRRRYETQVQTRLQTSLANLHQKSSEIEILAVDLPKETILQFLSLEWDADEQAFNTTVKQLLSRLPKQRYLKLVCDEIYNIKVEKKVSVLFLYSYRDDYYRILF

SMILES	IC50 [1] [nM]	IC50 [2] [nM]
O=C1CCOc2ccc(cc2)-n2nnc3cnc(nc32)Nc2cnn(c2)CCCN1 [Compound A1, 2,7-diaza-11-oxa-3H-1(5,3)-[1,2,3]triazolo[4,5-d]pyrimidina-1H-3(4,1)-pyrazola-12(1,4)-benzenacyclododecaphane-8-one]	< 1000	–
O=C1COc2ccc(cc2)-n2nnc3cnc(nc32)Nc2cnn(c2)CCCN1 [Compound A3]	1000 to 5000	–
O=C1CCOc2ccc(cc2)-n2nnc3cnc(nc32)Nc2ccc(cc2)CCCN1 [Compound A5]	5000 to 10000	–
O=C1CCCCOc2ccc(cc2)Nc2ncc3nnn(c3n2)-c2cnn(c2)CCCN1 [Compound A7]	< 1000	–
O=C1CCn2cc(cn2)-n2nnc3cnc(nc32)Nc2ccc(cc2)OCCCN1 [Compound A8]	5000 to 10000	–
O=C1CCn2cc(cn2)-n2nnc3cnc(nc32)Nc2cccc(c2)OCCCN1 [Compound A11]	< 1000	–
CN1CCCCn2cc(cn2)Nc2ncc3nnn(c3n2)-c2ccc(cc2)OCCCCC1=O [Compound A12]	< 1000	–
O=C1CCCCOc2ccc(cc2)-n2nnc3cnc(nc32)Nc2cnn(c2)CCC2CCN1CC2 [Compound A17]	1000 to 5000	–
O=C1CCCOc2ccc(cc2)-n2cnc3cnc(nc32)Nc2ccc(cc2)CCCN1 [Compound A18]	< 1000	–
O=C1CCCCOc2ccc(cc2)-n2cnc3cnc(nc32)Nc2ccc(cc2)CCCN1 [Compound A19]	< 1000	–
O=C1CCCOc2ccc(cc2)-n2cnc3cnc(nc32)Nc2cnn(c2)CCCO1 [Compound A20]	1000 to 5000	–
O=C1CCCn2cc(cn2)Nc2ncc3nnn(c3n2)-c2ccc(cc2)CN1 [Compound A22]	1000 to 5000	–
O=C1CCCn2cc(cn2)Nc2ncc3nnn(c3n2)-c2cnn(c2)CCCN1 [Compound A23]	< 1000	–
O=C1CCCn2cc(cn2)Nc2ncc3nnn(c3n2)-c2ccc(cc2)OCCCN1 [Compound A24]	< 1000	–
c1cc2ccc1CCNCCCCn1cc(cn1)Nc1ncc3nnn-2c3n1 [Compound A25]	< 1000	–

The remaining lines, values ahead:

IC50 [1] [nM]	IC50 [2] [nM]	SMILES
< 1000	–	O=C1CCCOc2ccc(cc2)-n2nnc3cnc(nc32)Nc2cnn(c2)CCCN1 [Compound A2]
< 1000	–	O=C1CCCOc2ccc(cc2)-n2nnc3cnc(nc32)Nc2ccc(cc2)OCCCCN1 [Compound A4]
1000 to 5000	–	O=C1CCCOc2ccc(cc2)-n2nnc3cnc(nc32)Nc2ccc(cc2)CCCN1 [Compound A6]
5000 to 10000	–	O=C1CCn2cc(cn2)-n2nnc3cnc(nc32)Nc2ccc(cc2)OCCCCN1 [Compound A9]
< 1000	–	c1nn2cc1Nc1ncc3nnn(c3n1)-c1ccc(cc1)OCCNCCC2 [Compound A10]
< 1000	–	O=C1CCCOc2ccc(cc2)-n2nnc3cnc(nc32)Nc2cccc(c2)OCCCN1 [Compound A13]
< 1000	–	O=C1CCCOc2ccc(cc2)-n2cnc3cnc(nc32)Nc2cnn(c2)CCCN1 [Compound A14]
< 1000	–	O=C1CCCOc2ccc(cc2)-n2cnc3cnc(nc32)Nc2ccc(cc2)OCCCN1 [Compound A15]
< 1000	–	O=C1CCCCOc2ccc(cc2)-n2cnc3cnc(nc32)Nc2ccc(cc2)OCCCN1 [Compound A16]
< 1000	–	O=C1CCCOc2ccc(cc2)-n2nnc3cnc(nc32)Nc2cnn(c2)CCN2CCN(CCCN1)CC2 [Compound A21]
< 1000	< 1000	O=C1CCCCOc2ccc(cc2)-n2nnc3cnc(nc32)Nc2cnn(c2)CCCN1 [Compound A26]
1000 to 5000	–	O=C1CCCc2ccc(cc2)Nc2ncc3ncn(c3n2)-c2ccc(cc2)OCCCCN1 [Compound A27]
